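Tested at 5 concentrations; 48 h exposure; 96-well plates; endpoints linearly interpolated, else capped at highest concentration. GI50 is the concentration that inhibits growth by half. TGI is the concentration that stops growth completely.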
Columns and labels:
Test in all cases: NCI-60 cell line screen, 48 h
UACC-257 melanoma = test system: UACC-257 melanoma
TK-10 renal = test system: TK-10 renal
NCI-H460 lung = test system: NCI-H460 lung
KM12 colon = test system: KM12 colon
A498 renal = test system: A498 renal
T-47D breast = test system: T-47D breast
HL-60(TB) leukemia = test system: HL-60(TB) leukemia
COLO 205 colon = test system: COLO 205 colon
OVCAR-4 ovarian = test system: OVCAR-4 ovarian
LOX IMVI melanoma = test system: LOX IMVI melanoma
CAKI-1 renal = test system: CAKI-1 renal
SNB-75 CNS = test system: SNB-75 CNS
SK-MEL-2 melanoma = test system: SK-MEL-2 melanoma
OVCAR-3 ovarian = test system: OVCAR-3 ovarian
HCT-15 colon = test system: HCT-15 colon
MCF7 breast = test system: MCF7 breast
K-562 leukemia = test system: K-562 leukemia
DU-145 prostate = test system: DU-145 prostate
IGROV1 ovarian = test system: IGROV1 ovarian
BT-549 breast = test system: BT-549 breast
HOP-62 NSCLC = test system: HOP-62 NSCLC
EKVX NSCLC = test system: EKVX NSCLC
SN12C renal = test system: SN12C renal
OVCAR-8 ovarian = test system: OVCAR-8 ovarian
U251 CNS = test system: U251 CNS
SW-620 colon = test system: SW-620 colon
SNB-19 CNS = test system: SNB-19 CNS
MDA-MB-468 breast = test system: MDA-MB-468 breast
SF-539 CNS = test system: SF-539 CNS
SR leukemia = test system: SR leukemia
HCC-2998 colon = test system: HCC-2998 colon
M14 melanoma = test system: M14 melanoma
RXF 393 renal = test system: RXF 393 renal
SK-MEL-5 melanoma = test system: SK-MEL-5 melanoma
NCI-H23 lung = test system: NCI-H23 lung
RPMI-8226 leukemia = test system: RPMI-8226 leukemia
UO-31 renal = test system: UO-31 renal
SK-OV-3 ovarian = test system: SK-OV-3 ovarian
SF-268 CNS = test system: SF-268 CNS
PC-3 prostate = test system: PC-3 prostate
A549 NSCLC = test system: A549 NSCLC
CCRF-CEM leukemia = test system: CCRF-CEM leukemia
MDA-MB-435 = test system: MDA-MB-435
NCI-H522 lung = test system: NCI-H522 lung
HCT-116 colon = test system: HCT-116 colon
HT29 colon = test system: HT29 colon
MALME-3M melanoma = test system: MALME-3M melanoma
SF-295 CNS = test system: SF-295 CNS
NCI/ADR-RES ovarian = test system: NCI/ADR-RES ovarian
HOP-92 NSCLC = test system: HOP-92 NSCLC
MDA-MB-231 breast = test system: MDA-MB-231 breast
ACHN renal = test system: ACHN renal
SK-MEL-28 melanoma = test system: SK-MEL-28 melanoma
UACC-62 melanoma = test system: UACC-62 melanoma
786-0 renal = test system: 786-0 renal
HS 578T breast = test system: HS 578T breast
MOLT-4 leukemia = test system: MOLT-4 leukemia
NCI-H226 lung = test system: NCI-H226 lung
OVCAR-5 ovarian = test system: OVCAR-5 ovarian

SMILES: O=C(NO)c1ccc(Cn2ccc3c(NCc4ccccc4)ncnc32)cc1
- GI50 (UACC-257 melanoma): 2.39 µM
- TGI (UACC-257 melanoma): 15.1 µM
- GI50 (TK-10 renal): 3.2 µM
- TGI (TK-10 renal): 17.8 µM
- GI50 (NCI-H460 lung): 3.12 µM
- TGI (NCI-H460 lung): 19.1 µM
- GI50 (KM12 colon): 3.19 µM
- TGI (KM12 colon): 12.7 µM
- GI50 (A498 renal): 2.28 µM
- TGI (A498 renal): 10.2 µM
- GI50 (T-47D breast): 3.13 µM
- TGI (T-47D breast): 21.8 µM
- GI50 (HL-60(TB) leukemia): 2.34 µM
- TGI (HL-60(TB) leukemia): 6.38 µM
- GI50 (COLO 205 colon): 2.43 µM
- TGI (COLO 205 colon): 6.24 µM
- GI50 (OVCAR-4 ovarian): 12.2 µM
- TGI (OVCAR-4 ovarian): 96.2 µM
- GI50 (LOX IMVI melanoma): 4.2 µM
- TGI (LOX IMVI melanoma): 16.1 µM
- GI50 (CAKI-1 renal): 3.21 µM
- TGI (CAKI-1 renal): 15.2 µM
- GI50 (SNB-75 CNS): 1.25 µM
- TGI (SNB-75 CNS): 5.36 µM
- GI50 (SK-MEL-2 melanoma): 4.58 µM
- TGI (SK-MEL-2 melanoma): 18.7 µM
- GI50 (OVCAR-3 ovarian): 2.17 µM
- TGI (OVCAR-3 ovarian): 5.23 µM
- GI50 (HCT-15 colon): 3.09 µM
- TGI (HCT-15 colon): 15.2 µM
- GI50 (MCF7 breast): 3.25 µM
- TGI (MCF7 breast): 22.8 µM
- GI50 (K-562 leukemia): 2.03 µM
- TGI (K-562 leukemia): > 103 µM
- GI50 (DU-145 prostate): 4.06 µM
- TGI (DU-145 prostate): > 103 µM
- GI50 (IGROV1 ovarian): 4.14 µM
- TGI (IGROV1 ovarian): 14.7 µM
- GI50 (BT-549 breast): 13.7 µM
- TGI (BT-549 breast): 31.7 µM
- GI50 (HOP-62 NSCLC): 4.13 µM
- TGI (HOP-62 NSCLC): 20.9 µM
- GI50 (EKVX NSCLC): 5.93 µM
- TGI (EKVX NSCLC): 19.8 µM
- GI50 (SN12C renal): 4.41 µM
- TGI (SN12C renal): 17.3 µM
- GI50 (OVCAR-8 ovarian): 3.1 µM
- TGI (OVCAR-8 ovarian): 14.4 µM
- GI50 (U251 CNS): 3.21 µM
- TGI (U251 CNS): 15.2 µM
- GI50 (SW-620 colon): 2.22 µM
- TGI (SW-620 colon): 6.49 µM
- GI50 (SNB-19 CNS): 5.81 µM
- TGI (SNB-19 CNS): 20.6 µM
- GI50 (MDA-MB-468 breast): 2.12 µM
- TGI (MDA-MB-468 breast): 6.05 µM
- GI50 (SF-539 CNS): 2.64 µM
- TGI (SF-539 CNS): 9.8 µM
- GI50 (SR leukemia): 0.937 µM
- TGI (SR leukemia): > 103 µM
- GI50 (HCC-2998 colon): 4.5 µM
- TGI (HCC-2998 colon): 17.1 µM
- GI50 (M14 melanoma): 4.12 µM
- TGI (M14 melanoma): 20.2 µM
- GI50 (RXF 393 renal): 1.94 µM
- TGI (RXF 393 renal): 5.63 µM
- GI50 (SK-MEL-5 melanoma): 1.9 µM
- TGI (SK-MEL-5 melanoma): 6.37 µM
- GI50 (NCI-H23 lung): 4.8 µM
- TGI (NCI-H23 lung): 17.2 µM
- GI50 (RPMI-8226 leukemia): 2.9 µM
- TGI (RPMI-8226 leukemia): > 103 µM
- GI50 (UO-31 renal): 3.93 µM
- TGI (UO-31 renal): 16.6 µM
- GI50 (SK-OV-3 ovarian): 3.27 µM
- TGI (SK-OV-3 ovarian): 15.6 µM
- GI50 (SF-268 CNS): 8.8 µM
- TGI (SF-268 CNS): 36.5 µM
- GI50 (PC-3 prostate): 4.35 µM
- TGI (PC-3 prostate): 97.9 µM
- GI50 (A549 NSCLC): 4.34 µM
- TGI (A549 NSCLC): 20.6 µM
- GI50 (CCRF-CEM leukemia): 3.72 µM
- TGI (CCRF-CEM leukemia): 58.7 µM
- GI50 (MDA-MB-435): 0.562 µM
- TGI (MDA-MB-435): 2.26 µM
- GI50 (NCI-H522 lung): 1.93 µM
- TGI (NCI-H522 lung): 7.69 µM
- GI50 (HCT-116 colon): 3.4 µM
- TGI (HCT-116 colon): 24.9 µM
- GI50 (HT29 colon): 2.48 µM
- TGI (HT29 colon): 6.93 µM
- GI50 (MALME-3M melanoma): 1.99 µM
- TGI (MALME-3M melanoma): 9.52 µM
- GI50 (SF-295 CNS): 3.49 µM
- TGI (SF-295 CNS): 12.7 µM
- GI50 (NCI/ADR-RES ovarian): 2.6 µM
- TGI (NCI/ADR-RES ovarian): 12.7 µM
- GI50 (HOP-92 NSCLC): 4.07 µM
- TGI (HOP-92 NSCLC): 18.5 µM
- GI50 (MDA-MB-231 breast): 5.2 µM
- TGI (MDA-MB-231 breast): 22 µM
- GI50 (ACHN renal): 4.07 µM
- TGI (ACHN renal): 15.2 µM
- GI50 (SK-MEL-28 melanoma): 3.77 µM
- TGI (SK-MEL-28 melanoma): 17.5 µM
- GI50 (UACC-62 melanoma): 2.39 µM
- TGI (UACC-62 melanoma): 12.2 µM
- GI50 (786-0 renal): 8.63 µM
- TGI (786-0 renal): 26.6 µM
- GI50 (HS 578T breast): 2.27 µM
- TGI (HS 578T breast): 7.62 µM
- GI50 (MOLT-4 leukemia): 2.41 µM
- TGI (MOLT-4 leukemia): 10.3 µM
- GI50 (NCI-H226 lung): 4.17 µM
- TGI (NCI-H226 lung): 25.5 µM
- GI50 (OVCAR-5 ovarian): 2.57 µM
- TGI (OVCAR-5 ovarian): 10.1 µM
